Assays:
[1] = Narcosis-prolonging action in rats (chloral hydrate narcosis), sedative action; details: rat, in vivo, po
Protocol: (§1) The time at which the righting reflex ceases to function is measured.
(§2) The reference substances were the conventional anti-hypertensive agents clonidine and benclonidine.
(§3) An undesired side-effect of clonidine is the central-suppressive (sedative) action, which was tested using, as a model, the prolongation of chloral hydrate narcosis.

[2] = tested on: chloral hydrate narcosis in Sprague-Dawley rats; test: as above; details: for Narcosis-prolonging effect R.E. (relative effectiveness): rats, oral administration, relative to clonidine = 1.00
Protocol: as §1, §2, §3

[3] = compared with clonidine; DAS No. 2,559,711; cited from earlier work
[4] = German Published Application DAS No. 2,559,711; cited from earlier work
[5] = tested on: spontaneously hypertonic Okamoto rats (SH rats); test: Anti-hypertensive action, systolic blood pressure in spontaneously hypertonic rats, oral; type: in vivo, rat (male spontaneously hypertonic Okamoto rats); details: oral administration; for ED20: Rattus norvegicus, dose lowering systolic pressure by 20%, 2 h after administration, read-out: Anti-hypertensive effect ED 20%; for Anti-hypertensive effect R.E. (relative effectiveness): relative to clonidine = 1.00
Protocol: The compounds are administered orally to groups of 4-8 male spontaneously hypertonic Okamoto rats (SH rats). Before, and two hours after, the administration, the systolic blood pressure is measured on the tail of the rat by means of a piezoelectric sensor.
The ED 20% is determined, from the dose-effect relationship and taking into account the values found with untreated control animals, as the dose which lowers the systolic pressure by 20%.

[6] = DAS No. 2,559,711; cited from earlier work
Acute toxicity (LD 50) = details: rat, in vivo, po
Protocol: To determine the acute toxicity (LD 50), the compounds are administered orally to groups of 10 male Sprague-Dawley rats each weighing 150-320 g. The period of observation is 1 week.

Structure (SMILES)	ED50 [1]	selectivity ratio [1]	Narcosis-prolonging effect R.E. (relative effectiveness) [2]	sedative side-effects [3]	blood pressure-reducing properties [4]	ED20 [5]	Anti-hypertensive effect R.E. (relative effectiveness) [5]	absorption on oral administration [6]	LD50 at 168 h (Acute toxicity (LD 50))	ratio of sedative to anti-hypertensive doses compared with clonidine or benclonidine ([2]; compared with clonidine or benclonidine)
O=C(c1ccccc1)N1CCN=C1Nc1c(Cl)cccc1Cl [Benclonidine, 1-benzoyl-2-(2',6'-dichlorophenylamino)-2-imidazoline]	0.948 mg/kg	1.13	0.06	lesser sedative side-effects than the parent compound clonidine	exhibits blood pressure-reducing properties	0.836 mg/kg	0.10	efficiently absorbed on oral administration	68.1 mg/kg	
Clc1cccc(Cl)c1NC1=NCCN1 [Clonidine, 2-(2',6'-dichlorophenylamino)-2-imidazoline]	0.0565 mg/kg	0.68	1.00		exhibits blood pressure-reducing properties	0.0829 mg/kg	1.00		67.3 mg/kg	
O=C(c1cccnc1)N1CCN=C1Nc1c(Cl)cccc1Cl [Example 1, 1-nicotinoyl-2-(2',6'-dichlorophenylamino)-2-imidazoline]	0.1 mg/kg	1.27	0.57			0.0786 mg/kg	1.05		80 mg/kg	
O=C(c1ccc2ccccc2n1)N1CCN=C1Nc1c(Cl)cccc1Cl [Example 45, 1-(quinolin-2-oyl)-2-(2',6'-dichlorophenylamino)-2-imidazoline]	0.464 mg/kg	5.42	0.12			0.0856 mg/kg	0.97		44 mg/kg	substantially more advantageous

From patent US4389403A, “1-Aroyl-2-phenylamino-2-imidazolines, drugs containing these compounds, and use thereof” (BASF Aktiengesellschaft, priority 1980, dated 1983)
